Laboratory results as given in patent US7632811B2, “Analogs of parathyroid hormone” (Societe de Conseils de Recherches et D'Applications …, priority 1995, dated 2009).
Read-outs that look alike come from different tables or passages of the source. Non-standard residues stand in square brackets, D forms with d. Residues, ends and D or L forms follow the SMILES beside them. Cha = N[C@@H](CC1CCCCC1)C(=O)O; Ac6c = NC1(C(=O)O)CCCCC1; Aib = CC(C)(N)C(=O)O

Molecular target: T1, PTH receptor present on SaOS-2 (human osteosarcoma cells) (Homo sapiens, UniProt Q03431)
T1 construct: host or cells: SaOS-2 human osteosarcoma cells (intact, confluent monolayers)
T1 sequence (Q03431 27-593): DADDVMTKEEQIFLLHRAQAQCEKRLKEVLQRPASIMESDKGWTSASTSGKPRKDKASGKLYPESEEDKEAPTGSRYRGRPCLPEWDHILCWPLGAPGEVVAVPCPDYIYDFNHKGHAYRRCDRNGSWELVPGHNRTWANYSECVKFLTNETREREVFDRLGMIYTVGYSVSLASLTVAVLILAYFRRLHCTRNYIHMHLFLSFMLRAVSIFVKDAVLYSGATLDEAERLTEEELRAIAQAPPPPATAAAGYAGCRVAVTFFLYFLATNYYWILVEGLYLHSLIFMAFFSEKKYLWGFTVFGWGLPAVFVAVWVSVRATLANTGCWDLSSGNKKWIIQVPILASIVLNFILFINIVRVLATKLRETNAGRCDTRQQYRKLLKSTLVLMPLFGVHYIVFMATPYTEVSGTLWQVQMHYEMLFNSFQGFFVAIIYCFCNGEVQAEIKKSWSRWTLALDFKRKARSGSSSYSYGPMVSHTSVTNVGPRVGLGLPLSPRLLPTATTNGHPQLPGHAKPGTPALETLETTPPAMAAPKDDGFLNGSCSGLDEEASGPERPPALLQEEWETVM
Test: Binding to PTH receptor on SaOS-2 cells (competition with mono-125I-[Nle8,18,Tyr34(3-125I)]bPTH(1-34)NH2)
Conditions: 2 hrs at room temperature, read-out: Kd (half maximal inhibition of binding of mono-125I-[Nle8,18, Tyr34(3-125I)]bPTH(1-34)NH2)
Procedure: A. Binding to PTH Receptor
The peptides of the invention were tested for their ability to bind to the PTH receptor present on SaOS-2 (human osteosarcoma cells). SaOS-2 cells (American Type Culture Collection, Rockville, Md.; ATCC #HTB 85) were maintained in RPMI 1640 medium (Sigma, St. Louis, Mo.) supplemented with 10% fetal bovine serum (FBS) and 2 mM glutamine at 37EC in a humidified atmosphere of 5% CO2 in air. The medium was changed every three or four days, and the cells were subcultured every week by trypsinization.
SaOS-2 cells were maintained for four days until they had reached confluence. The medium was replaced with 5% FBS in RPMI 1640 medium and incubated for 2 hrs at room temperature with 10×10^4 cpm mono-^125I-[Nle^8,18, Tyr^34(3-^125I)]bPTH(1-34)NH2 in the presence of a competing peptides of the invention at various concentrations between 10^−11 M to 10^−4 M. The cells were washed four times with ice-cold PBS and lysed with 0.1 M NaOH, and the radioactivity associated with the cells was counted in a scintillation counter. Synthesis of mono-^125I-[Nle^8,18, Tyr^34(3-^125I)]bPTH(1-34)NH2 was carried out as described in Goldman, M. E., et al., Endocrinol., 123:1468 (1988).
The binding assay was conducted with various peptides of the invention, and the Kd value (half maximal inhibition of binding of mono-^125I-[Nle^8,18, Tyr^34(3-^125I)]bPTH(1-34)NH2) for each peptide was calculated.

SMILES | Kd (Table I) | Kd (Table II)
CC[C@H](C)[C@H](NC(=O)[C@H](CCC(=O)O)NC(=O)[C@H](CO)NC(=O)[C@@H](NC(=O)[C@@H](N)CO)C(C)C)C(=O)N[C@@H](CCC(N)=O)C(=O)N[C@@H](CC1CCCCC1)C(=O)N[C@@H](CCSC)C(=O)N[C@@H](Cc1c[nH]cn1)C(=O)N[C@@H](CC(N)=O)C(=O)N[C@@H](CC1CCCCC1)C(=O)NCC(=O)N[C@@H](CCCCN)C(=O)N[C@@H](Cc1c[nH]cn1)C(=O)N[C@@H](CC(C)C)C(=O)N[C@@H](CC(N)=O)C(=O)N[C@@H](CO)C(=O)N[C@@H](CCSC)C(=O)N[C@@H](CCC(=O)O)C(=O)N[C@@H](CCCNC(=N)N)C(=O)N[C@H](C(=O)N[C@@H](CCC(=O)O)C(=O)N[C@@H](Cc1c[nH]c2ccccc12)C(=O)N[C@@H](CC(C)C)C(=O)N[C@@H](CCCNC(=N)N)C(=O)N[C@@H](CCCCN)C(=O)N[C@@H](CCCCN)C(=O)N[C@@H](CC(C)C)C(=O)N[C@@H](CCC(N)=O)C(=O)N[C@@H](CC(=O)O)C(=O)N[C@H](C(=O)N[C@@H](Cc1c[nH]cn1)C(=O)N[C@@H](CC(N)=O)C(=O)N[C@@H](Cc1ccccc1)C(N)=O)C(C)C)C(C)C [[Cha^7,11]hPTH(1-34)NH2] (H-SVSEIQ[Cha]MHN[Cha]GKHLNSMERVEWLRKKLQDVHNF-NH2) | 10 nM | 
CC[C@H](C)[C@H](NC(=O)[C@H](CCC(=O)O)NC(=O)[C@H](CO)NC(=O)[C@@H](NC(=O)[C@@H](N)CO)C(C)C)C(=O)N[C@@H](CCC(N)=O)C(=O)N[C@@H](CC1CCCCC1)C(=O)N[C@@H](CCSC)C(=O)N[C@@H](Cc1c[nH]cn1)C(=O)N[C@@H](CC(N)=O)C(=O)N[C@@H](CC(C)C)C(=O)NCC(=O)N[C@@H](CCCCN)C(=O)N[C@@H](Cc1c[nH]cn1)C(=O)N[C@@H](CC(C)C)C(=O)N[C@@H](CC(N)=O)C(=O)N[C@@H](CO)C(=O)N[C@@H](CCSC)C(=O)N[C@@H](CCC(=O)O)C(=O)N[C@@H](CCCNC(=N)N)C(=O)N[C@H](C(=O)N[C@@H](CCC(=O)O)C(=O)N[C@@H](Cc1c[nH]c2ccccc12)C(=O)N[C@@H](CC(C)C)C(=O)N[C@@H](CCCNC(=N)N)C(=O)N[C@@H](CCCCN)C(=O)N[C@@H](CCCCN)C(=O)N[C@@H](CC(C)C)C(=O)N[C@@H](CCC(N)=O)C(=O)N[C@@H](CC(=O)O)C(=O)N[C@H](C(=O)N[C@@H](Cc1c[nH]cn1)C(=O)N[C@@H](CC(N)=O)C(=O)N[C@@H](Cc1ccccc1)C(N)=O)C(C)C)C(C)C [[Cha^7]hPTH(1-34)NH2] (H-SVSEIQ[Cha]MHNLGKHLNSMERVEWLRKKLQDVHNF-NH2) | 20 nM | 
CC[C@H](C)[C@H](NC(=O)[C@H](CCC(=O)O)NC(=O)[C@H](CO)NC(=O)[C@@H](NC(=O)[C@@H](N)CO)C(C)C)C(=O)N[C@@H](CCC(N)=O)C(=O)N[C@@H](CC(C)C)C(=O)N[C@@H](CCSC)C(=O)N[C@@H](Cc1c[nH]cn1)C(=O)N[C@@H](CC(N)=O)C(=O)N[C@@H](CC1CCCCC1)C(=O)NCC(=O)N[C@@H](CCCCN)C(=O)N[C@@H](Cc1c[nH]cn1)C(=O)N[C@@H](CC(C)C)C(=O)N[C@@H](CC(N)=O)C(=O)N[C@@H](CO)C(=O)N[C@@H](CCSC)C(=O)N[C@@H](CCC(=O)O)C(=O)N[C@@H](CCCNC(=N)N)C(=O)N[C@H](C(=O)N[C@@H](CCC(=O)O)C(=O)N[C@@H](Cc1c[nH]c2ccccc12)C(=O)N[C@@H](CC(C)C)C(=O)N[C@@H](CCCNC(=N)N)C(=O)N[C@@H](CCCCN)C(=O)N[C@@H](CCCCN)C(=O)N[C@@H](CC(C)C)C(=O)N[C@@H](CCC(N)=O)C(=O)N[C@@H](CC(=O)O)C(=O)N[C@H](C(=O)N[C@@H](Cc1c[nH]cn1)C(=O)N[C@@H](CC(N)=O)C(=O)N[C@@H](Cc1ccccc1)C(N)=O)C(C)C)C(C)C [[Cha^11]hPTH(1-34)NH2] (H-SVSEIQLMHN[Cha]GKHLNSMERVEWLRKKLQDVHNF-NH2) | 5 nM | 
CC[C@H](C)[C@H](NC(=O)[C@H](CCC(=O)O)NC(=O)[C@H](CO)NC(=O)[C@@H](NC(=O)[C@@H](N)CO)C(C)C)C(=O)N[C@@H](CCC(N)=O)C(=O)N[C@@H](CC(C)C)C(=O)N[C@@H](CCSC)C(=O)N[C@@H](Cc1c[nH]cn1)C(=O)N[C@@H](CC(N)=O)C(=O)N[C@@H](CC(C)C)C(=O)NCC(=O)N[C@@H](CCCCN)C(=O)N[C@@H](Cc1c[nH]cn1)C(=O)N[C@@H](CC1CCCCC1)C(=O)N[C@@H](CC(N)=O)C(=O)N[C@@H](CO)C(=O)N[C@@H](CCSC)C(=O)N[C@@H](CCC(=O)O)C(=O)N[C@@H](CCCNC(=N)N)C(=O)N[C@H](C(=O)N[C@@H](CCC(=O)O)C(=O)N[C@@H](Cc1c[nH]c2ccccc12)C(=O)N[C@@H](CC(C)C)C(=O)N[C@@H](CCCNC(=N)N)C(=O)N[C@@H](CCCCN)C(=O)N[C@@H](CCCCN)C(=O)N[C@@H](CC(C)C)C(=O)N[C@@H](CCC(N)=O)C(=O)N[C@@H](CC(=O)O)C(=O)N[C@H](C(=O)N[C@@H](Cc1c[nH]cn1)C(=O)N[C@@H](CC(N)=O)C(=O)N[C@@H](Cc1ccccc1)C(N)=O)C(C)C)C(C)C [[Cha^15]hPTH(1-34)NH2] (H-SVSEIQLMHNLGKH[Cha]NSMERVEWLRKKLQDVHNF-NH2) | 5 nM | 
CC[C@H](C)[C@H](NC(=O)[C@H](CO)NC(=O)[C@H](CCCCN)NC(=O)CNC(=O)[C@H](CCCCN)NC(=O)[C@H](CC(=O)O)NC(=O)[C@H](Cc1c[nH]cn1)NC(=O)[C@H](CC(C)C)NC(=O)[C@H](CC(C)C)NC(=O)[C@H](CCC(N)=O)NC(=O)[C@H](Cc1c[nH]cn1)NC(=O)[C@H](CCC(=O)O)NC(=O)[C@H](CO)NC(=O)[C@@H](NC(=O)[C@H](C)N)C(C)C)C(=O)N[C@@H](CCC(N)=O)C(=O)N[C@@H](CC(=O)O)C(=O)N[C@@H](CC(C)C)C(=O)N[C@@H](CCCNC(=N)N)C(=O)N[C@@H](CCCNC(=N)N)C(=O)N[C@@H](CCCNC(=N)N)C(=O)N[C@@H](CC1CCCCC1)C(=O)N[C@@H](CC(C)C)C(=O)N[C@@H](CC(C)C)C(=O)N[C@@H](CCC(=O)O)C(=O)N[C@@H](CCCCN)C(=O)NC1(C(=O)N[C@@H](CC(C)C)C(=O)NC(C)(C)C(=O)N[C@@H](CCCCN)C(=O)N[C@@H](CC(C)C)C(=O)N[C@@H](Cc2c[nH]cn2)C(=O)N[C@H](C(=O)N[C@@H](C)C(N)=O)[C@@H](C)O)CCCCC1 [[Cha^22, Leu^23,28,31, Glu^25, Lys^26,30, Ahc^27, Aib^29]hPTHrP(1-34)NH2] (H-AVSEHQLLHDKGKSIQDLRRR[Cha]LLEK[Ac6c]L[Aib]KLHTA-NH2) |  | 60 nM
CC[C@H](C)[C@H](NC(=O)[C@H](CCC(=O)O)NC(=O)[C@H](CO)NC(=O)[C@@H](NC(=O)[C@@H](N)CO)C(C)C)C(=O)N[C@@H](CCC(N)=O)C(=O)N[C@@H](CC(C)C)C(=O)N[C@@H](CCSC)C(=O)N[C@@H](Cc1c[nH]cn1)C(=O)N[C@@H](CC(N)=O)C(=O)N[C@@H](CC(C)C)C(=O)NCC(=O)N[C@@H](CCCCN)C(=O)N[C@@H](Cc1c[nH]cn1)C(=O)N[C@@H](CC(C)C)C(=O)N[C@@H](CC(N)=O)C(=O)N[C@@H](CO)C(=O)N[C@@H](CCSC)C(=O)N[C@@H](CCC(=O)O)C(=O)N[C@@H](CCCNC(=N)N)C(=O)N[C@H](C(=O)N[C@@H](CCC(=O)O)C(=O)N[C@@H](CC1CCCCC1)C(=O)N[C@@H](CC(C)C)C(=O)N[C@@H](CCCNC(=N)N)C(=O)N[C@@H](CCCCN)C(=O)N[C@@H](CCCCN)C(=O)N[C@@H](CC(C)C)C(=O)N[C@@H](CCC(N)=O)C(=O)N[C@@H](CC(=O)O)C(=O)N[C@H](C(=O)N[C@@H](Cc1c[nH]cn1)C(=O)N[C@@H](CC(N)=O)C(=O)N[C@@H](Cc1ccccc1)C(N)=O)C(C)C)C(C)C [[Cha^23]hPTH(1-34)NH2] (H-SVSEIQLMHNLGKHLNSMERVE[Cha]LRKKLQDVHNF-NH2) | 200 nM | 
